The IC50 is the midpoint of a concentration-inhibition curve. Usually inhibition stands for the percentage by which the read-out fell short of the control.

The results in this text go back to patent US20240287078A1, “QUINAZOLINE DERIVATIVES USEFUL AS RAS INHIBITORS” (Redx Pharma PLC, priority 2021, published 2024).

Format in all cases: biochemical
Experiment [1] deals with T1, KRAS WT (Homo sapiens, UniProt P01116).
T1 construct: aa1-188 KRAS WT, HRAS WT, NRAS WT
Kind of experiment: HTRF nucleotide exchange assay (NEA), KRAS WT. As to conditions: recombinant human KRAS WT aa1-188, 2 nM, 60 min compound incubation, EDA-GTP-DY647P1; for inhibition at 10 µM: 1 h. As to the method:
(§1) HTRF Nucleotide Exchange Assay Method
(§2) The capacity of compounds to bind KRAS G12D, other KRAS mutants and wildtype RAS isoforms was quantified using a HTRF nucleotide exchange assay. Recombinant human RAS protein (2 nM; aa1-188 KRAS WT, HRAS WT, NRAS WT, or KRAS containing the containing the G12D, G13D or Q61H amino acid substitutions, or 4 nM KRAS; aa1-188 containing the G12V, G12C, G12A or G12S amino acid substitution, an N-terminal 6×His-tag and leader sequence), and 2 nM Europium-labeled anti-6×His antibody were mixed in assay buffer (10 mM HEPES pH7.3, 150 mM NaCl, 5 mM MgCl2, 0.05% BSA, 0.0025% NP-40 and 100 mM KF) with various concentrations of compound in a 384-well plate and a volume of 5 uL. After a 60-minute incubation at room temperature, Sul of 200 nM EDA-GTP-DY647P1 (diluted in assay buffer) was added to the plate. Following 30-minute incubation at room temperature, time-resolved fluorescence was measured on a PerkinElmer Envision plate reader. DMSO (0.3%) and unlabeled GDP (1 μM) or equivalent tool compound were used to generate the Max and Min assay signals, respectively. Data was analysed using a four-parameter logistic model to calculate IC50 values, with at least two independent replicates were performed for each compound.
Background: In TR-FRET formats the signal depends on donor and acceptor labels being close together.

The target in experiment [2] is T2, KRAS G13D (Homo sapiens, UniProt P01116, G13D).
T2 construct: aa1-188 KRAS WT, HRAS WT, NRAS WT, or KRAS containing the containing the G12D, G13D or Q61H amino acid substitutions
Description: HTRF nucleotide exchange assay (NEA), KRAS G13D. As to conditions: 1 h; recombinant human KRAS aa1-188 G13D, 2 nM; 60 min compound incubation, EDA-GTP-DY647P1. The method, then:
as §1
The capacity of compounds to bind KRAS G12D, other KRAS mutants and wildtype RAS isoforms was quantified using a HTRF nucleotide exchange assay. […] After a 60-minute incubation at room temperature, Sul of 200 nM EDA-GTP-DY647P1 (diluted in assay buffer) was added to the plate. Following 30-minute incubation at room temperature, time-resolved fluorescence was measured on a PerkinElmer Envision plate reader. DMSO (0.3%) and unlabeled GDP (1 μM) or equivalent tool compound were used to generate the Max and Min assay signals, respectively. Data was analysed using a four-parameter logistic model to calculate IC50 values, with at least two independent replicates were performed for each compound.

In experiment [3] the target is T3, KRAS G12D (Homo sapiens, UniProt P01116, G12D).
T3 construct: aa1-188 KRAS WT, HRAS WT, NRAS WT, or KRAS containing the containing the G12D, G13D or Q61H amino acid substitutions
Description: HTRF nucleotide exchange assay (NEA), KRAS G12D. Particulars: recombinant human KRAS aa1-188 G12D, 2 nM, 60 min compound incubation, EDA-GTP-DY647P1; for inhibition at 10 µM: 1 h. The method, then:
as §1, §2

Experiment [4] deals with T4, KRAS G12C (Homo sapiens, UniProt P01116, G12C).
T4 construct: 4 nM KRAS; aa1-188 containing the G12V, G12C, G12A or G12S amino acid substitution
Kind of experiment: HTRF nucleotide exchange assay (NEA), KRAS G12C. Particulars: recombinant human KRAS aa1-188 G12C, 4 nM; 60 min compound incubation, EDA-GTP-DY647P1. The method, then:
as §1, §2

For experiment [5], the target named is T5, KRAS G12S (Homo sapiens, UniProt P01116, G12S).
T5 construct: 4 nM KRAS; aa1-188 containing the G12V, G12C, G12A or G12S amino acid substitution
Description: HTRF nucleotide exchange assay (NEA), KRAS G12S. As to conditions: 1 h; recombinant human KRAS aa1-188 G12S, 4 nM; 60 min compound incubation, EDA-GTP-DY647P1. As to the method: as §1, §2

T1 sequence (P01116 1-188 isoform P01116-2): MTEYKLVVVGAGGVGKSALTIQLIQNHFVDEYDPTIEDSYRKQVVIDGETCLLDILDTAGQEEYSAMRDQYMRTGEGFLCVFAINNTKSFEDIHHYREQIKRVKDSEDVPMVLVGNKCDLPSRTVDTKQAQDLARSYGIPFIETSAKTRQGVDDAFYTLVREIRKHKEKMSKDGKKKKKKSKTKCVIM
T3 sequence (P01116 1-188 isoform P01116-2 G12D): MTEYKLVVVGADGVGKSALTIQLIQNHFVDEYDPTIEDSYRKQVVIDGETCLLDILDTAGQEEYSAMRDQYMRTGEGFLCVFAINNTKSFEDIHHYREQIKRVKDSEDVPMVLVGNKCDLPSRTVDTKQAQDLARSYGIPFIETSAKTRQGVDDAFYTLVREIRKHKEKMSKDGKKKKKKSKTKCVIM
T5 sequence (P01116 1-188 isoform P01116-2 G12S): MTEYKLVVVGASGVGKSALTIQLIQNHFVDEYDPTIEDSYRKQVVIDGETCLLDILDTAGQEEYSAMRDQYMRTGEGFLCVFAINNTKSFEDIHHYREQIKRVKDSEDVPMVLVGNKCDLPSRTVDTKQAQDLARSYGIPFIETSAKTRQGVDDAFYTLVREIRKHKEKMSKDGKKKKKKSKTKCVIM
T2 sequence (P01116 1-188 isoform P01116-2 G13D): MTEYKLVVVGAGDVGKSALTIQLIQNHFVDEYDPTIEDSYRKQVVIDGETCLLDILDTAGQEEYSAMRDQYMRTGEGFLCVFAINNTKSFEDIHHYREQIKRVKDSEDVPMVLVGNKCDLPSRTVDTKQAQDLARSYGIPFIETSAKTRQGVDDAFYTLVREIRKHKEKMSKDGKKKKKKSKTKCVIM
T4 sequence (P01116 1-188 isoform P01116-2 G12C): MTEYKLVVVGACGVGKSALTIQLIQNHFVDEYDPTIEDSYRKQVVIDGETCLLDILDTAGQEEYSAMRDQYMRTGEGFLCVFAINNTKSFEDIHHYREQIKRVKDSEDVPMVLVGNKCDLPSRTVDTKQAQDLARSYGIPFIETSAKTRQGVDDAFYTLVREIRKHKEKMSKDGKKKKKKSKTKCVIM

On to `Cc1c(-c2cc(O)cc3ccccc23)ccc2c(N3CC4CCC(C3)N4)nc(OCC34CCCN3CCC4)nc12` [Example 1, 4-[4-(3,8-diazabicyclo[3.2.1]octan-3-yl)-2-(1,2,3,5,6,7-hexahydropyrrolizin-8-ylmethoxy)-8-methyl-quinazolin-7-yl]naphthalen-2-ol], for which the IC50 in experiment [1] is 0.1 to 10 µM; in experiment [3] it was under 0.01 µM; in experiment [4] it was 0.1 to 10 µM. Moreover, in experiment [2], the inhibition at 10 µM is 10 to 49%.
For the compound `Cc1c(-c2cc(O)cc3ccccc23)ccc2c(N3CCOCCC3=O)nc(OCC34CCCN3CCC4)nc12` [Example 4, 4-[2-(1,2,3,5,6,7-hexahydropyrrolizin-8-ylmethoxy)-7-(3-hydroxy-1-naphthyl)-8-methyl-quinazolin-4-yl]-1,4-oxazepan-5-one], the inhibition at 10 µM in experiment [1], in experiment [2] and in experiment [3] was 10 to 49% each time.
For `Cc1c(-c2cc(O)cc3ccccc23)ccc2c(N3CCCOCC3=O)nc(OCC34CCCN3CCC4)nc12` [Example 5, 4-[2-(1,2,3,5,6,7-hexahydropyrrolizin-8-ylmethoxy)-7-(3-hydroxy-1-naphthyl)-8-methyl-quinazolin-4-yl]-1,4-oxazepan-3-one], the inhibition at 10 µM in experiment [1], in experiment [2] and in experiment [3] was 10 to 49% throughout.
As to `Cc1c(-c2cc(O)cc3ccccc23)ccc2c(N3CCn4nccc4C3)nc(OCC34CCCN3CCC4)nc12` [Example 7], the inhibition at 10 µM in experiment [1], in experiment [5] and in experiment [3] was 10 to 49% in each case.
Turning to `Cc1c(-c2cc(O)cc3ccccc23)ccc2c(N3CCn4cncc4C3)nc(OCC34CCCN3CCC4)nc12` [Example 8, 4-[4-(6,8-dihydro-5H-imidazo[1,5-a]pyrazin-7-yl)-2-(1,2,3,5,6,7-hexahydropyrrolizin-8-ylmethoxy)-8-methyl-quinazolin-7-yl]naphthalen-2-ol], the inhibition at 10 µM in experiment [1], in experiment [5] and in experiment [3] was 10 to 49% throughout.
With `Cc1c(-c2cc(O)cc3ccccc23)ccc2c(N3CCn4ccnc4C3)nc(OCC34CCCN3CCC4)nc12` [Example 9, 4-[4-(6,8-dihydro-5H-imidazo[1,2-a]pyrazin-7-yl)-2-(1,2,3,5,6,7-hexahydropyrrolizin-8-ylmethoxy)-8-methyl-quinazolin-7-yl]naphthalen-2-ol], the inhibition at 10 µM in experiment [1], in experiment [5] and in experiment [3] was 10 to 49% in each case.
Consider `Cc1c(-c2cc(O)cc3ccccc23)ccc2c(N3CCc4[nH]ncc4C3)nc(OCC34CCCN3CCC4)nc12` [Example 10, 4-[2-(1,2,3,5,6,7-hexahydropyrrolizin-8-ylmethoxy)-8-methyl-4-(1,4,6,7-tetrahydropyrazolo[4,3-c]pyridin-5-yl)quinazolin-7-yl]naphthalen-2-ol], for which the inhibition at 10 µM in experiment [1] and in experiment [3] was 10 to 49% throughout.
For `Cc1c(-c2cc(O)cc3ccccc23)ccc2c(N3CCc4cn[nH]c4C3)nc(OCC34CCCN3CCC4)nc12` [Example 11, 4-[2-(1,2,3,5,6,7-hexahydropyrrolizin-8-ylmethoxy)-8-methyl-4-(1,4,5,7-tetrahydropyrazolo[3,4-c]pyridin-6-yl)quinazolin-7-yl]naphthalen-2-ol], the inhibition at 10 µM in experiment [1] and in experiment [3] was 10 to 49% throughout.
On to `Cc1c(-c2ncnc3ccc(C#N)cc23)ccc2c(N3CCCOCC3)nc(OCC34CCCN3CCC4)nc12` [Example 12, 4-[2-(1,2,3,5,6,7-hexahydropyrrolizin-8-ylmethoxy)-8-methyl-4-(1,4-oxazepan-4-yl)quinazolin-7-yl]quinazoline-6-carbonitrile], for which the inhibition at 10 µM in experiment [1] and in experiment [3] was 10 to 49% in each case.
As to `Cc1c(-c2cccc3sc(N)nc23)ccc2c(N3CCCOCC3)nc(OCC34CCCN3CCC4)nc12` [Example 13, 4-[2-(1,2,3,5,6,7-hexahydropyrrolizin-8-ylmethoxy)-8-methyl-4-(1,4-oxazepan-4yl)quinazolin-7-yl]-1,3-benzothiazol-2-amine], the IC50 in experiment [1] and in experiment [3] was 0.1 to 10 µM each time.
On to `Cc1nc(-c2ccc3c(N4CCCOCC4)nc(OCC45CCCN4CCC5)nc3c2C)c2ccccc2n1` [Example 14, 4-[2-(1,2,3,5,6,7-hexahydropyrrolizin-8-ylmethoxy)-8-methyl-7-(2-methylquinazolin-4-yl)quinazolin-4-yl]-1,4-oxazepane], for which the inhibition at 10 µM in experiment [1] and in experiment [3] was 10 to 49% throughout.
On to `COc1ccc(C(F)(F)F)cc1-c1ccc2c(N3CCCOCC3)nc(OCC34CCCN3CCC4)nc2c1C` [Example 15, 4-[2-(1,2,3,5,6,7-hexahydropyrrolizin-8-ylmethoxy)-7-[2-methoxy-5-(trifluoromethyl)phenyl]-8-methyl-quinazolin-4-yl]-1,4-oxazepane], for which the inhibition at 10 µM in experiment [1] and in experiment [3] was 10 to 49% in each case.
As for `COc1ccc(Cl)cc1-c1ccc2c(N3CCCOCC3)nc(OCC34CCCN3CCC4)nc2c1C` [Example 16, 4-[7-(5-chloro-2-methoxy-phenyl)-2-(1,2,3,5,6,7-hexahydropyrrolizin-8-ylmethoxy)-8-methyl-quinazolin-4-yl]-1,4-oxazepane], in experiment [1], the IC50 fell in the range of 0.1 to 10 µM. Besides, the inhibition at 10 µM in experiment [3] lay in the range of 10 to 49%.
Regarding `Cc1c(-c2c[nH]nc2C(F)(F)F)ccc2c(N3CCCOCC3)nc(OCC34CCCN3CCC4)nc12` [Example 17, 4-[2-(1,2,3,5,6,7-hexahydropyrrolizin-8-ylmethoxy)-8-methyl-7-[3-(trifluoromethyl)-1H-pyrazol-4-yl]quinazolin-4-yl]-1,4-oxazepane], the inhibition at 10 µM in experiment [1] and in experiment [3] was 10 to 49% in each case.
For the compound `Cc1ccc2[nH]ncc2c1-c1ccc2c(N3CCCOCC3)nc(OCC34CCCN3CCC4)nc2c1C` [Example 18, 4-[2-(1,2,3,5,6,7-hexahydropyrrolizin-8-ylmethoxy)-8-methyl-7-(5-methyl-1H-indazol-4-yl)quinazolin-4-yl]-1,4-oxazepane], the inhibition at 10 µM in experiment [1] and in experiment [3] was 10 to 49% each time.
In the case of `Cc1c(-c2cccc3[nH]ncc23)ccc2c(N3CCCOCC3)nc(OCC34CCCN3CCC4)nc12` [Example 19, 4-[2-(1,2,3,5,6,7-hexahydropyrrolizin-8-ylmethoxy)-7-(1H-indazol-4-yl)-8-methyl-quinazolin-4-yl]-1,4-oxazepane], the inhibition at 10 µM in experiment [1] and in experiment [3] was 10 to 49% in each case.
As to `Cc1c(-c2n[nH]c3ccccc23)ccc2c(N3CCCOCC3)nc(OCC34CCCN3CCC4)nc12` [Example 20, 4-[2-(1,2,3,5,6,7-hexahydropyrrolizin-8-ylmethoxy)-7-(1H-indazol-3-yl)-8-methyl-quinazolin-4-yl]-1,4-oxazepane], the inhibition at 10 µM in experiment [1] and in experiment [3] was 10 to 49% throughout.
`Cc1c(-c2cccc3cnn(C)c23)ccc2c(N3CCCOCC3)nc(OCC34CCCN3CCC4)nc12` [Example 21, 4-[2-(1,2,3,5,6,7-hexahydropyrrolizin-8-ylmethoxy)-8-methyl-7-(1-methylindazol-7-yl)quinazolin-4-yl]-1,4-oxazepane]: the inhibition at 10 µM in experiment [1] and in experiment [3] was 10 to 49% each time.
On to `Cc1c(-c2nc(N)cc3ccccc23)ccc2c(N3CCCOCC3)nc(OCC34CCCN3CCC4)nc12` [Example 23, 1-[2-(1,2,3,5,6,7-hexahydropyrrolizin-8-ylmethoxy)-8-methyl-4-(1,4-oxazepan-4-yl)quinazolin-7-yl]isoquinolin-3-amine], for which the inhibition at 10 µM in experiment [1] and in experiment [3] was 10 to 49% each time.
